Experimental data reported in ChEMBL document CHEMBL5055685, “Discovery of the First Potent IDO1/IDO2 Dual Inhibitors: A Promising Strategy for Cancer Immunotherapy” (J Med Chem, 2021).
Active and inactive are the calls of the source. The rule behind the calls is not given here.

What was measured:
[1] = biological target: Mitogen-activated protein kinase 9 (Homo sapiens) (UniProt P45984); experiment: Inhibition of JNK2 (unknown origin) at 1 uM
[2] = biological target: Epithelial discoidin domain-containing receptor 1 (Homo sapiens) (UniProt Q08345); experiment: Inhibition of DDR1 (unknown origin) at 1 uM
[3] = biological target: Tyrosine-protein kinase Yes (Homo sapiens) (UniProt P07947); experiment: Inhibition of YES (unknown origin) at 1 uM
HCT-116 = experiment: Antitumor immunity in BALB/c mouse xenografted with human HCT-116 cells assessed as increase in IL-2 in serum by […]; assay type: functional, cell-based
[4] = biological target: Serine/threonine-protein kinase ULK3 (Homo sapiens) (UniProt Q6PHR2); experiment: Inhibition of ULK3 (unknown origin) at 1 uM
[5] = biological target: Tyrosine-protein kinase Fgr (Homo sapiens) (UniProt P09769); experiment: Inhibition of FGR (unknown origin) at 1 uM
[6] = Metabolic stability in human liver microsomes assessed as rate constant; assay type: ADME, Microsome
[7] = biological target: Serine/threonine-protein kinase Nek5 (Homo sapiens) (UniProt Q6P3R8); experiment: Inhibition of NEK5 (unknown origin) at 1 uM
[8] = biological target: Mitogen-activated protein kinase kinase kinase 11 (Homo sapiens) (UniProt Q16584); experiment: Inhibition of MLK3 (unknown origin) at 1 uM
HeLa = experiment: Cytotoxicity against human HeLa cells assessed as reduction in cell viability at 1 to 10 uM by CCK8 assay; assay type: functional, cell-based; conditions: dose 1-10 µM
[9] = biological target: Serine/threonine-protein kinase WNK2 (Homo sapiens) (UniProt Q9Y3S1); experiment: Inhibition of WNK2 (unknown origin) at 1 uM
[10] = biological target: Serine/threonine-protein kinase WNK1 (Homo sapiens) (UniProt Q9H4A3); experiment: Inhibition of WNK1 (unknown origin) at 1 uM
[11] = biological target: Serine/threonine-protein kinase MRCK gamma (Homo sapiens) (UniProt Q6DT37); experiment: Inhibition of DMPK2 (unknown origin) at 1 uM
[12] = biological target: Serine/threonine-protein kinase Sgk1 (Homo sapiens) (UniProt O00141); experiment: Inhibition of SGK1 (unknown origin) at 1 uM
[13] = Tmax in Sprague-Dawley rat at 50 mg/kg, po; assay type: ADME, organism-based; conditions: in vivo
[14] = biological target: Serine/threonine-protein kinase SIK3 (Homo sapiens) (UniProt Q9Y2K2); experiment: Inhibition of SIK3 (unknown origin) at 1 uM
[15] = biological target: Muscle, skeletal receptor tyrosine-protein kinase (Homo sapiens) (UniProt O15146); experiment: Inhibition of MUSK (unknown origin) at 1 uM
[16] = biological target: Aryl hydrocarbon receptor (Homo sapiens, UniProt P35869); experiment: Activation of AhR (unknown origin) assessed as effect on CYP1A1 mRNA expression measured after 24 hrs by quantitative RT-PCR analysis; assay type: ADME
[17] = biological target: Mitogen-activated protein kinase 10 (Homo sapiens) (UniProt P53779); experiment: Inhibition of JNK3 (unknown origin) at 1 uM
[18] = biological target: Ephrin type-A receptor 5 (Homo sapiens) (UniProt P54756); experiment: Inhibition of EPHA5 (unknown origin) at 1 uM
[19] = biological target: Wee1-like protein kinase (Homo sapiens) (UniProt P30291); experiment: Inhibition of WEE1 (unknown origin) at 1 uM
[20] = biological target: Cyclin-dependent kinase 2/cyclin E1 (Homo sapiens) (UniProt P24864+P24941); experiment: Inhibition of CDK2/cyclin-E (unknown origin) at 1 uM; assay type: protein-complex assay
[21] = biological target: Serine/threonine-protein kinase Nek6 (Homo sapiens) (UniProt Q9HC98); experiment: Inhibition of NEK6 (unknown origin) at 1 uM
[22] = biological target: Hepatocyte growth factor receptor (Homo sapiens) (UniProt P08581); experiment: Inhibition of c-MET (unknown origin) at 1 uM
[23] = biological target: Serine/threonine-protein kinase SIK2 (Homo sapiens) (UniProt Q9H0K1); experiment: Inhibition of SIK2 (unknown origin) at 1 uM
[24] = biological target: Bone morphogenetic protein receptor type-1A (Homo sapiens) (UniProt P36894); experiment: Inhibition of ALK3 (unknown origin) at 1 uM
[25] = biological target: Mitogen-activated protein kinase kinase kinase 1 (Homo sapiens) (UniProt Q13233); experiment: Inhibition of MEKK1 (unknown origin) at 1 uM
[26] = biological target: Cyclin-dependent kinase 4/cyclin D1 (Homo sapiens) (UniProt P11802+P24385); experiment: Inhibition of CDK4/cyclin-D1 (unknown origin) at 1 uM; assay type: protein-complex assay
[27] = Apparent permeability across basolateral to apical side in human Caco-2 cells; assay type: ADME, cell-based
[28] = biological target: Tyrosine-protein kinase BTK (Homo sapiens) (UniProt Q06187); experiment: Inhibition of BTK (unknown origin) at 1 uM
[29] = biological target: NUAK family SNF1-like kinase 1 (Homo sapiens) (UniProt O60285); experiment: Inhibition of ARK5 (unknown origin) at 1 uM
[30] = biological target: High affinity nerve growth factor receptor (Homo sapiens) (UniProt P04629); experiment: Inhibition of TRKA (unknown origin) at 1 uM
[31] = biological target: Death-associated protein kinase 3 (Homo sapiens) (UniProt O43293); experiment: Inhibition of ZIPK (unknown origin) at 1 uM
[32] = biological target: Vascular endothelial growth factor receptor 3 (Homo sapiens) (UniProt P35916); experiment: Inhibition of FLT4 (unknown origin) at 1 uM
[33] = biological target: cAMP-dependent protein kinase catalytic subunit PRKX (Homo sapiens) (UniProt P51817); experiment: Inhibition of PRKX (unknown origin) at 1 uM
[34] = biological target: Insulin receptor (Homo sapiens) (UniProt P06213); experiment: Inhibition of IR (unknown origin) at 1 uM
[35] = biological target: RAC-beta serine/threonine-protein kinase (Homo sapiens) (UniProt P31751); experiment: Inhibition of AKT2 (unknown origin) at 1 uM
[36] = biological target: Dual specificity mitogen-activated protein kinase kinase 7 (Homo sapiens) (UniProt O14733); experiment: Inhibition of MKK7 (unknown origin) at 1 uM
[37] = biological target: Serine/threonine-protein kinase N2 (Homo sapiens) (UniProt Q16513); experiment: Inhibition of PKN2 (unknown origin) at 1 uM
[38] = biological target: Casein kinase II subunit alpha' (Homo sapiens) (UniProt P19784); experiment: Inhibition of CK2A2 (unknown origin) at 1 uM
[39] = biological target: Serine/threonine-protein kinase NIM1 (Homo sapiens) (UniProt Q8IY84); experiment: Inhibition of NIM1 (unknown origin) at 1 uM
[40] = biological target: Serine/threonine-protein kinase PAK 3 (Homo sapiens) (UniProt O75914); experiment: Inhibition of PAK3 (unknown origin) at 1 uM
[41] = biological target: Serine/threonine-protein kinase 24 (Homo sapiens) (UniProt Q9Y6E0); experiment: Inhibition of MST3 (unknown origin) at 1 uM
[42] = Half life in Sprague-Dawley rat at 50 mg/kg, po; assay type: ADME, organism-based; conditions: in vivo
[43] = biological target: TGF-beta receptor type-1 (Homo sapiens) (UniProt P36897); experiment: Inhibition of ALK5 (unknown origin) at 1 uM

High affinity nerve growth factor receptor (Homo sapiens), sequence (P04629 33-796 limits assumed): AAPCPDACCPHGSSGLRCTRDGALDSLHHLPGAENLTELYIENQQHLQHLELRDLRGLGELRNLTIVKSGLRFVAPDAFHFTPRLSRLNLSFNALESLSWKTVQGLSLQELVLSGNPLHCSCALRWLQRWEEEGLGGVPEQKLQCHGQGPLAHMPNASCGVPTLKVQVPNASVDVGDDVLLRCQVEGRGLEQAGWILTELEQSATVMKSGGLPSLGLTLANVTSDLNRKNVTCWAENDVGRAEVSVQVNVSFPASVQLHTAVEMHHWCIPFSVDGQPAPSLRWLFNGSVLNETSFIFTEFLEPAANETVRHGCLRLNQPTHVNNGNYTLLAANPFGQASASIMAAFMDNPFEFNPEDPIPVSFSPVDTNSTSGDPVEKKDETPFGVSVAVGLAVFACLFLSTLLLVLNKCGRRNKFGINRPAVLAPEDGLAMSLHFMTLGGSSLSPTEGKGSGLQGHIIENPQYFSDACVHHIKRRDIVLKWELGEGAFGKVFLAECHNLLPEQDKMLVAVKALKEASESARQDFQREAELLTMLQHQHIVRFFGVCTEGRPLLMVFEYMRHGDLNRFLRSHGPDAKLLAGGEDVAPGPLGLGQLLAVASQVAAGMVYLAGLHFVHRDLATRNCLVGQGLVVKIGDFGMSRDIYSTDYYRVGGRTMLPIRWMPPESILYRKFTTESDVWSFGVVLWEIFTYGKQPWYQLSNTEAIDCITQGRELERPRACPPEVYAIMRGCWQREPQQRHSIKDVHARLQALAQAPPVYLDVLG
Ephrin type-A receptor 5 (Homo sapiens), sequence (P54756 whole entry): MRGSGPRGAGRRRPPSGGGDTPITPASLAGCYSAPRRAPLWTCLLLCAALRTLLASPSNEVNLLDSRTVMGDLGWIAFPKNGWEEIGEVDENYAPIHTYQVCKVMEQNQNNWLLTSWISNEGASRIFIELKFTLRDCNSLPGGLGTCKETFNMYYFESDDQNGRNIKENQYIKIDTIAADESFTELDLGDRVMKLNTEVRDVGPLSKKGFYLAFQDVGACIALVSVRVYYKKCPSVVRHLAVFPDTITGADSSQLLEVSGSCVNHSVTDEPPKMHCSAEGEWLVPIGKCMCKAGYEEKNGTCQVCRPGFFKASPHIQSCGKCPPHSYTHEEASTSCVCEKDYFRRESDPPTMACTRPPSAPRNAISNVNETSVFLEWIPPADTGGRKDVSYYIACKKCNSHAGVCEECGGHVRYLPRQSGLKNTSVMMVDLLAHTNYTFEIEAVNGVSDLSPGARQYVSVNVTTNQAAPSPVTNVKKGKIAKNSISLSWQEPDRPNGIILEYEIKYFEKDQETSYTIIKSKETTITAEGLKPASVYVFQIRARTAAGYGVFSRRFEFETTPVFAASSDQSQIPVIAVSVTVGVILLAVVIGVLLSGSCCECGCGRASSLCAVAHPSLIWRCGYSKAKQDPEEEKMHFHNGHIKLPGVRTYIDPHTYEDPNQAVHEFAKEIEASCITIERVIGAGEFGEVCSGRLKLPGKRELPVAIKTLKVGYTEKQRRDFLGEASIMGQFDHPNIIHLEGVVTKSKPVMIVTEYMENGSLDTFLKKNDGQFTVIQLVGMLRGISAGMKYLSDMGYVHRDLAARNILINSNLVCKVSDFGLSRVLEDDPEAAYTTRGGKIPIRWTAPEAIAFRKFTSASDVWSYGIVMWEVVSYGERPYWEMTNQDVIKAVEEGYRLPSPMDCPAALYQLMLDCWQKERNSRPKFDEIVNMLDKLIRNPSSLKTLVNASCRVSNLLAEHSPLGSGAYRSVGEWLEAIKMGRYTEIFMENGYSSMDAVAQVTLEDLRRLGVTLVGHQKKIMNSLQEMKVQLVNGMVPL
Wee1-like protein kinase (Homo sapiens), sequence (P30291 whole entry, looked up): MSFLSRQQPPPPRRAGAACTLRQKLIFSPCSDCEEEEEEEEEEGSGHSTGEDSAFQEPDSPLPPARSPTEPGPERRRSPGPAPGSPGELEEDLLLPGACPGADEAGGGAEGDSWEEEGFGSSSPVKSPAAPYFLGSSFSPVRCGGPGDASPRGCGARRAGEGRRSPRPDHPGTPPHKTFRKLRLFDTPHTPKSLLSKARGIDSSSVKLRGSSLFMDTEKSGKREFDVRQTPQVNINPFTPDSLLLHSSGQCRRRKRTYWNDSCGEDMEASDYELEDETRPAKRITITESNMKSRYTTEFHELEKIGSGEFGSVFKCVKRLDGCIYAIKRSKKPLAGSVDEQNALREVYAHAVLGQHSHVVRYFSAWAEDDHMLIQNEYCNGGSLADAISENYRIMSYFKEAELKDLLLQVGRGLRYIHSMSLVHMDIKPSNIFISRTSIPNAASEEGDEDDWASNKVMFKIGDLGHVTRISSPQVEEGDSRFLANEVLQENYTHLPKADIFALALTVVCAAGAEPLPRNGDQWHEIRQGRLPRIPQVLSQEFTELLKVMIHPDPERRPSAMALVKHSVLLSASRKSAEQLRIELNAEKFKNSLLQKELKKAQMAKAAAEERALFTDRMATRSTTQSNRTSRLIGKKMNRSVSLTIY
Mitogen-activated protein kinase kinase kinase 11 (Homo sapiens), sequence (Q16584 whole entry, looked up): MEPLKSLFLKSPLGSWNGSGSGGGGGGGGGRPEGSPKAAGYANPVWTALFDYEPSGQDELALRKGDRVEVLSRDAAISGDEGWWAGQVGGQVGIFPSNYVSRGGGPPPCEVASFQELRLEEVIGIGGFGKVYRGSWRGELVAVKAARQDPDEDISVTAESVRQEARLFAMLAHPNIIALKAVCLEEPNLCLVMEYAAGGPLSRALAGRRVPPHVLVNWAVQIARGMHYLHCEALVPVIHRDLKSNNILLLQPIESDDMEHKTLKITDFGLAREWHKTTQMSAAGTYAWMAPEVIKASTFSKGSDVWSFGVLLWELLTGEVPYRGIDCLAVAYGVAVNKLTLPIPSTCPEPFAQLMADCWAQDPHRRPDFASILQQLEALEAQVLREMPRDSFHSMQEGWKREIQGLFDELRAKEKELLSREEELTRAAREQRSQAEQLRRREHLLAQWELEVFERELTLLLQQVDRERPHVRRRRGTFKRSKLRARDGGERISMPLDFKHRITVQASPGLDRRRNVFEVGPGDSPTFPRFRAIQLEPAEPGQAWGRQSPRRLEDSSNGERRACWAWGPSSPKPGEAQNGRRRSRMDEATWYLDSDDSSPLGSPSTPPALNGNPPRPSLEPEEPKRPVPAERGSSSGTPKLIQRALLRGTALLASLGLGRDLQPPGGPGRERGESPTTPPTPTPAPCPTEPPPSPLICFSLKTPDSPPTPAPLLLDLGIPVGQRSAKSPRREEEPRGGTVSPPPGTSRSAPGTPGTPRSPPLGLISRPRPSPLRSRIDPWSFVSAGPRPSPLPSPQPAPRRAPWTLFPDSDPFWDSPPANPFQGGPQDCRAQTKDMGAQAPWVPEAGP
Epithelial discoidin domain-containing receptor 1 (Homo sapiens), sequence (Q08345 whole entry, the tested form may be a part): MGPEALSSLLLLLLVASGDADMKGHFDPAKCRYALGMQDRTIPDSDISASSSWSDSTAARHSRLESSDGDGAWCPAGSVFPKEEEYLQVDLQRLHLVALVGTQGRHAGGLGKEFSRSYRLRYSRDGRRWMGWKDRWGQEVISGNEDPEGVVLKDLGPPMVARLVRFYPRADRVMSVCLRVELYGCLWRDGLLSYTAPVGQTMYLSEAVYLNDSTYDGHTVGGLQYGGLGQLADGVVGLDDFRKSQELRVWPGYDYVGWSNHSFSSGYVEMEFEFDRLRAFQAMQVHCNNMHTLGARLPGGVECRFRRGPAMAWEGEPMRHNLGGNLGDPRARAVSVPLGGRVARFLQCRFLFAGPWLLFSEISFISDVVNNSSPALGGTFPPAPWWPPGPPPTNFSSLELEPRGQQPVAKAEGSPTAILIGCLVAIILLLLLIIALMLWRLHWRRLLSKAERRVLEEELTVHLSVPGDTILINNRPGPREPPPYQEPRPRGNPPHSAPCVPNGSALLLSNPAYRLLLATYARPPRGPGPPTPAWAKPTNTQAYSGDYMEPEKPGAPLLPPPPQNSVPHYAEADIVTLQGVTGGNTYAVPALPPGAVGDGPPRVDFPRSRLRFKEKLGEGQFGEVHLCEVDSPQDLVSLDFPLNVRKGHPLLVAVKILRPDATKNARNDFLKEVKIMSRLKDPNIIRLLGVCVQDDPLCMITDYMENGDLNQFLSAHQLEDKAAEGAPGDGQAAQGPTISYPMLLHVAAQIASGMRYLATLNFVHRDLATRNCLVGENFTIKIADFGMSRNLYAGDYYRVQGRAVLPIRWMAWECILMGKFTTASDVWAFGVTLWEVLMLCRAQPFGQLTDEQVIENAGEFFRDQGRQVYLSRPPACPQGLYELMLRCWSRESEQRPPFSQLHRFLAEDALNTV
Serine/threonine-protein kinase Nek5 (Homo sapiens), sequence (Q6P3R8 whole entry): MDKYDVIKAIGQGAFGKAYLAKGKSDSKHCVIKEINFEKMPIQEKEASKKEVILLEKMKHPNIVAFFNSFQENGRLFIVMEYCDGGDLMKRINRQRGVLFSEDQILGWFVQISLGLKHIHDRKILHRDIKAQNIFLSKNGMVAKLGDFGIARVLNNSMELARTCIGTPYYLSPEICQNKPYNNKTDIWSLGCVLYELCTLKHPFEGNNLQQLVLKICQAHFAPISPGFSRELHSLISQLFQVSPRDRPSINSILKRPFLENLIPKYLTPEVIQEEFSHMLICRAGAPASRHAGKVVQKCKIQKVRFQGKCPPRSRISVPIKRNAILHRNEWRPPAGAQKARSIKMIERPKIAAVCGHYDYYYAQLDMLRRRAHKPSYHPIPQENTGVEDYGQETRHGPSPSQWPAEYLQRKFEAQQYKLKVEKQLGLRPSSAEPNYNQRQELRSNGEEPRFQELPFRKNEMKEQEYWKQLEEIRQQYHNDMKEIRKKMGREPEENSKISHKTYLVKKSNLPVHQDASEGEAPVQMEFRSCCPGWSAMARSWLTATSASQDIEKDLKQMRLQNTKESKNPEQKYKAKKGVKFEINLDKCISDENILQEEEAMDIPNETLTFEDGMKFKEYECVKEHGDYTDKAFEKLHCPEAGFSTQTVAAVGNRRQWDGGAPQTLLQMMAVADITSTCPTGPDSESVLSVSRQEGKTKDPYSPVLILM

OCCOCc1cn(CCNc2nonc2/C(=N/O)Nc2ccc(F)c(Br)c2)nn1
inhibition [1]: inactive | inhibition [2]: inactive | inhibition [3]: inactive | Activity (HCT-116): Active | inhibition [4]: inactive | inhibition [5]: inactive | k el [6]: 0.00025 s⁻¹ | inhibition [7]: inactive | inhibition [8]: inactive | Activity (HeLa): Active | inhibition [9]: inactive | inhibition [10]: inactive | inhibition [11]: inactive | inhibition [12]: inactive | Tmax [13]: 1.3 h | inhibition [14]: inactive | inhibition [15]: inactive | Activity [16]: Not Active | inhibition [17]: inactive | inhibition [18]: inactive | inhibition [19]: inactive | inhibition [20]: inactive | inhibition [21]: inactive | inhibition [22]: inactive | inhibition [23]: inactive | inhibition [24]: inactive | inhibition [25]: inactive | inhibition [26]: inactive | Papp B→A [27]: 46 ×10⁻⁶ cm/s | inhibition [28]: inactive | inhibition [29]: inactive | inhibition [30]: inactive | inhibition [31]: inactive | inhibition [32]: inactive | inhibition [33]: inactive | inhibition [34]: inactive | inhibition [35]: inactive | inhibition [36]: inactive | inhibition [37]: inactive | inhibition [38]: inactive | inhibition [39]: inactive | inhibition [40]: inactive | inhibition [41]: inactive | half-life [42]: 1.9 h | inhibition [43]: inactive
